Data reported in publication PMC6659632, “Preferential phosphatidylinositol 5-phosphate binding contributes to a destabilization of the VHS domain structure of Tom1” (Scientific Reports, 2019).
Where two headings read alike, the source gives them in different places.

Assays:
Format in all cases: binding
Tom1 VHS domain [1] = target: T1, Tom1 VHS domain (Homo sapiens, UniProt O60784); test: thermal denaturation by far-UV CD at […] nm; conditions: molar excess of lipid, nonreducing, 5 mM sodium citrate pH 7.3, 50 mM KF; free protein Tm 47.5 ± 0.1 °C
T1 construct: GST fusion from E. coli Rosetta, GST cut off with thrombin; monomer
T1 sequence (O60784 1-140 limits assumed): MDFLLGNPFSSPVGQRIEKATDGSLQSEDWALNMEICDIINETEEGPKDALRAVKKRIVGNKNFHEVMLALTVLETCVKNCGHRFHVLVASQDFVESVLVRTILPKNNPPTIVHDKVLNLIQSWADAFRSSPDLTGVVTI

Tom1 VHS domain [2] = target: T1, Tom1 VHS domain; test: isothermal titration calorimetry
Description: isothermal titration calorimetry on Tom1 VHS domain

Tom1 VHS domain [3] = target: T1, Tom1 VHS domain; test: thermal denaturation by far-UV CD at […] nm; conditions: pre-incubated with excess lipid, nonreducing, 5 mM sodium citrate pH 7.3, 50 mM KF; free protein Tm 47.5 ± 0.1 °C

For `CCCCCCCC(=O)OC[C@H](COP(=O)([O-])OCC[N+](C)(C)C)OC(=O)CCCCCCC` [PtdCho], the “Tm (°C) / N to I/D” value (Tom1 VHS domain [1]) was 43.0 ± 0.1 °C.

In the case of `CCCCCCCC(=O)OC[C@H](COP(=O)(O)O[C@H]1[C@H](O)[C@@H](OP(=O)(O)O)[C@H](O)[C@@H](O)[C@H]1O)OC(=O)CCCCCCC` [PtdIns5P], the Kd (Tom1 VHS domain [2]; high-affinity site of two-site fit, nonreducing, 20 mM HEPES pH 7.4, 150 mM KCl, 25 °C) is reported as 3.1 ± 0.6 µM and the “Tm (°C) / N to I/D” value (Tom1 VHS domain [1]) is reported as 37.6 ± 0.3 °C.

With `O=P(O)(O)O[C@@H]1[C@@H](O)[C@H](OP(=O)(O)O)[C@H](O)[C@H](O)[C@H]1O` [Ins(1,5)P2] the Kd (Tom1 VHS domain [2]) was 214 ± 67.2 µM.

PtdIns showed a mid-transition temperature (Tom1 VHS domain [3]) of 34 °C.
